From patent US20120122854A1, “Carbocyclic Fused Cyclic Amines” (priority 2005, published 2012)

Target: T1, human factor Xa (Homo sapiens, UniProt P00742)
T1 construct: purchased Enzyme Research Laboratories
Assay: Factor Xa chromogenic peptide substrate (S-2222) assay
Type: biochemical
Conditions: human factor Xa 3 nM, chromogenic substrate S-2222, pH 7.8, room temperature; apparent Ki from IC50 by Cheng-Prusoff
Description: Factor Xa activity was measured spectrophotometrically in microtiter plates in a final volume of 150 μl using the following conditions: Inhibition of human factor Xa (Enzyme Research Laboratories) was tested at an enzyme concentration of 3 nM using the chromogenic substrate S-2222 (Chromogenix AB, Mölndal, Sweden) at […]. The reaction kinetics of the enzyme and the substrate were linear with both time and the enzyme concentration. The inhibitors were dissolved in DMSO and tested at various concentrations up to 100 μM. The inhibitors were diluted using HNPT buffer consisting of HEPES100 mM, NaCl 140 mM, PEG 6000 0.1% and Tween 80 0.02%, pH 7.8. The cleavage of S-2222 by human factor Xa was followed at 405 nm for 5 minutes at room temperature. The velocity of the reaction was determined by the autoreader from the slope of the linear regression fit to 7 time points (1 minute). The initial velocity for each inhibitor concentration was determined by the slope of at least 4 time points in the linear phase by a linear regression fit […]. Apparent dissociation constants Ki were calculated according to Cheng and Prusoff [Cheng, Y. C.; Prusoff, W. H. Relationship between the inhibition constant (Ki) and the concentration of the inhibitor that causes 50 percent inhibition (IC50) of an enzyme reaction. Biochem. Pharmacol. 1973, 22, 3099-3108.] based on the IC50 and the respective Km, determined previously (Ki=IC50/(1+S/Km)). The Km for the substrate used was determined under the conditions of the test with at least 5 substrate concentrations ranging from 0.5 to 15 times Km. [Lottenberg R, Hall J A, Blinder M, Binder E P, Jackson C M., The action of thrombin on peptide p-nitroanilide substrates. Substrate selectivity and examination of hydrolysis under different reaction conditions. Biochim Biophys Acta. 1983 Feb. 15; 742(3):539-57]. According to Eadie [Eadie G. S. The inhibition of cholinesterase by physostigmine and prostigmine. J. Biol. Chem. 1942, 146, 85-93.], the Km for S-2222 amounted to 613 μM.

T1 sequence (P00742 235-488 limits assumed): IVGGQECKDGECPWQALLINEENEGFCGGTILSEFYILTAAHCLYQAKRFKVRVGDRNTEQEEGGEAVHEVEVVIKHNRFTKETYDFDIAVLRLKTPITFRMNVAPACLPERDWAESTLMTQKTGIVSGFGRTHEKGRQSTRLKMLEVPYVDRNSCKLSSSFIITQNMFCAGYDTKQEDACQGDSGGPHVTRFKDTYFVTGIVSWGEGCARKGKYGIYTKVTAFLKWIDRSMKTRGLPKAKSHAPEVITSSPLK
T1 sequence (P00742 41-179 partner limits assumed): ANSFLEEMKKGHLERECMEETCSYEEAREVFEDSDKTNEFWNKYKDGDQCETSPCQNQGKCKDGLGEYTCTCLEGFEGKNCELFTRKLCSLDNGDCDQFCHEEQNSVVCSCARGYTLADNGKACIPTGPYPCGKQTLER

Row | Structure (SMILES) | Ki
1 | O=C(Nc1ccc(-n2ccccc2=O)cc1)C1c2ccccc2CN1C(=O)Nc1ccc(Cl)cc1 (stereo in doubt) [Example 4, (S)-1,3-Dihydro-isoindole-1,2-dicarboxylic acid 2-[(4-chloro-phenyl)-amide]1-{[4-(2-oxo-2H-pyridin-1-yl)-phenyl]-amide}] | 2 nM
2 | O=C(Nc1ccc(-n2ccccc2=O)cc1F)[C@H]1Cc2ccccc2CN1C(=O)Nc1ccc(Cl)cc1 [Example 25, (R)-3,4-Dihydro-1H-isoquinoline-2,3-dicarboxylic acid 2-[(4-chloro-phenyl)-amide]3-{[2-fluoro-4-(2-oxo-2H-pyridin-1-yl)-phenyl]-amide}] | 2 nM
3 | O=C(NCC1CN(C(=O)Nc2ccc(-n3ccccc3=O)cc2F)c2cccc(Cl)c21)c1ccc(Cl)s1 (stereo not drawn) [Example 44, 4-Chloro-3-{[(5-chloro-thiophene-2-carbonyl)-amino]-methyl}-2,3-dihydro-indole-1-carboxylic acid [2-fluoro-4-(2-oxo-2H-pyridin-1-yl)-phenyl]-amide] | 2 nM
